Results on four compounds are retold here after article PMC2574930 (Cancer, 2008).

Test [1] concerns ERK1/2 phosphorylation in KRJ-I cells. Briefly: ELISA. The class given is cell-based, human. For orientation: An ELISA detects its analyte on a solid surface through an enzyme-linked reagent.
Test [2] relates to p21^WAF1/CIP1 transcript in KRJ-I cells. Description: Real-time PCR p21WAF1/CIP1 transcripts, KRJ-I. The note with it: IC50 concentration, 24 hrs, p<0.01 vs. control, Mean±SEM, n=4. The class given is cell-based, human. Background: Quantitative PCR measures a nucleic acid by following its amplification.
For a further test, the system named is sst2. Conditions: read-out: sst2 receptor subtype specificity (IC50); human receptor; cited from earlier work.
Another test deals with NCI-H727 cells. Briefly: MTT proliferation assay, NCI-H727. Conditions: 72 hours incubation, drug applied every 24 hrs, 10^−10 to 10^−6. The class given is cell-based, human. (Formazan colour is commonly taken as a measure of viable cells.)
The test system of test [3] is Ki67 transcript in KRJ-I cells. Description: Real-time PCR Ki67 transcripts, KRJ-I. Format: cell-based, human.
In test [4] the test system is ERK1/2 phosphorylation in NCI-H727 cells. Description: ELISA. The class given is cell-based, human. Conditions: NCI-H727, 30 mins.
The subject of the next test is sst4. The note with it: read-out: sst4 receptor subtype specificity (IC50); human receptor; cited from earlier work.
Test [5] has as its system p21^WAF1/CIP1 transcript in NCI-H727 cells. Description: Real-time PCR p21WAF1/CIP1 transcripts, NCI-H727. The class given is cell-based, human. The note with it: NCI-H727, 24 hrs.
In the next test the test system is sst1. Conditions: read-out: sst1 receptor subtype specificity (IC50); human receptor; cited from earlier work.
A further test deals with sst3. The note with it: read-out: sst3 receptor subtype specificity (IC50); human receptor; cited from earlier work.
For test [6], the system named is Ki67 transcript in NCI-H720 cells. Briefly: Real-time PCR Ki67 transcripts, NCI-H720. The class given is cell-based, human.
The test system of test [7] is p21^WAF1/CIP1 transcript in NCI-H720 cells. Briefly: Real-time PCR p21WAF1/CIP1 transcripts, NCI-H720. The class given is cell-based, human.
The subject of the next test is sst5. The note with it: read-out: sst5 receptor subtype specificity (IC50); human receptor; cited from earlier work.

As a reminder, the IC50 is the point on the concentration scale where inhibition reaches its midpoint. For `CC(C)[C@@H]1NC(=O)[C@H](CCCCN)NC(=O)[C@@H](Cc2c[nH]c3ccccc23)NC(=O)[C@H](Cc2ccc(O)cc2)NC(=O)[C@@H](NC(=O)[C@H](N)Cc2ccc3ccccc3c2)CSSC[C@@H](C(=O)N[C@H](C(N)=O)[C@@H](C)O)NC1=O` [Lanreotide], the “Activation of ERK1/2 signaling, vs. control” value in test [1] (IC50 concentration, 30 mins, p=0.05 vs. control, Mean±SEM, n=4) is recorded as 25±8%. The “p21^WAF1/CIP1 transcripts elevated, vs. control” value in [2] was 175±21%. Besides, the IC50 in the test on sst2 was 0.75 nM; with sst4, above 1000 nM; in the test with sst1 it was above 1000 nM; with sst3, 98 nM; in the test on sst5, 12.7 nM. Moreover, the “Effect on NCI-H727 proliferation” value in the test on NCI-H727 cells is “No effect”. In test [3] (IC50 concentration, 24 hrs, p<0.01 vs. control, Mean±SEM, n=4), the “Ki67 transcript down regulated, vs. control” value was 73±12%. Besides, the “ERK phosphorylation” value in test [4] is “no effect”. Moreover, in test [5], the “p21^WAF1/CIP1 transcripts” value is reported as “not significantly up-regulated”. Moreover, in [6] (NCI-H720, IC50 concentration, 24 hr, p<0.01, Mean±SEM, n=4), the “Ki67 transcript levels decreased, vs. unstimulated cells” value amounted to 45±7%. Besides, the “p21^WAF1/CIP1 transcript levels increased, vs. control” value in test [7] (NCI-H720, IC50 concentration, 24 hr, p<0.01 vs. control, Mean±SEM, n=4) amounted to 140±27%.
Somatostatin-28: the IC50 in the test with sst2 was 0.31 nM; in the test with sst4 it was 5.4 nM; with sst1 it was 1.86 nM; with sst3, 1.3 nM; in the test on sst5 it was 0.4 nM.
For the compound Somatostatin-14, the IC50 with sst2 is 0.25 nM; in the test on sst4, 1.77 nM; in the test on sst1 it was 1.95 nM; with sst3, 1.2 nM; in the test on sst5 it was 1.41 nM.
As for `COc1cccc(-c2cc(=O)c3ccccc3o2)c1N` [PD98059], in test [1] (PD98059 pre-incubated 10 min prior to lanreotide), the “Inhibition of lanreotide-activated ERK1/2 signaling by PD98059” value is reported as “could be inhibited”. Besides, the “Inhibition of lanreotide Ki67 down regulation by PD98059” value in test [3] (p<0.05 vs. lanreotide alone) was “inhibited”. Moreover, in test [6] (NCI-H720, lanreotide 24 hr with PD98059, p<0.05 vs. lanreotide alone), the “Ki67 transcript decrease by lanreotide when inhibited by PD98059” value came to 6±2%. Also, the “Reversal of lanreotide-induced p21^WAF1/CIP1 increase by PD98059” value in [7] (NCI-H720, p<0.05 vs. lanreotide alone) was “reversible”.
